Test results from PubChem BioAssay AID248 (DTP/NCI, 2004).
Where “and” joins values, the source holds several entries; their conditions need not be identical. Equal values may be shown once. Inconclusive results and toxic doses are left out. Rule as the data show it: active = T/C of 150% or more; inactive = T/C below 125%.

System: L1210 leukemia ip in BDF1 mice, survival T/C
Assay: NCI In Vivo Anticancer Drug Screen. Data for tumor model L1210 Leukemia (intraperitoneal) in B6D2F1 (BDF1) mice
Details: endpoint: mean survival time, higher = longer survival
In short: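 Survival endpoint. Drug-treated group vs vehicle group, expressed as T divided by C. Tumor passaged by transplantation.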

[1] = dose: 100.0 mg/kg/injection, schedule: Q01DX001 (ip), vehicle: saline
[2] = dose: 400.0 mg/kg/injection, schedule: Q01DX001 (ip), vehicle: saline
[3] = dose: 200.0 mg/kg/injection, schedule: Q01DX001 (ip), vehicle: saline
[4] = dose: 100.0 mg/kg/injection, schedule: Q04DX002 (ip), vehicle: saline
[5] = dose: 100.0 mg/kg/injection, schedule: Q01DX009 (ip), vehicle: Klucel (hydroxypropylcellulose) (HPC)
[6] = dose: 100.0 mg/kg/injection, schedule: Q04DX002 (ip), vehicle: Klucel (hydroxypropylcellulose) (HPC)
[7] = dose: 200.0 mg/kg/injection, schedule: Q01DX009 (ip), vehicle: Klucel (hydroxypropylcellulose) (HPC)
[8] = dose: 200.0 mg/kg/injection, schedule: Q04DX002 (ip), vehicle: Klucel (hydroxypropylcellulose) (HPC)
[9] = dose: 400.0 mg/kg/injection, schedule: Q01DX009 (ip), vehicle: Klucel (hydroxypropylcellulose) (HPC)
[10] = dose: 400.0 mg/kg/injection, schedule: Q04DX002 (ip), vehicle: Klucel (hydroxypropylcellulose) (HPC)
[11] = dose: 25.0 mg/kg/injection, schedule: Q01DX009 (ip), vehicle: saline
[12] = dose: 100.0 mg/kg/injection, schedule: Q01DX009 (ip), vehicle: saline with Tween-80
[13] = dose: 200.0 mg/kg/injection, schedule: Q01DX009 (ip), vehicle: saline with Tween-80
[14] = dose: 100.0 mg/kg/injection, schedule: Q01DX009 (ip), vehicle: carboxymethylcellulose (CMC)
[15] = dose: 200.0 mg/kg/injection, schedule: Q01DX009 (ip), vehicle: carboxymethylcellulose (CMC)
[16] = dose: 400.0 mg/kg/injection, schedule: Q01DX009 (ip), vehicle: carboxymethylcellulose (CMC)
[17] = dose: 12.5 mg/kg/injection, schedule: Q01DX009 (ip), vehicle: saline
[18] = dose: 100.0 mg/kg/injection, schedule: Q04DX002 (ip), vehicle: saline with Tween-80
[19] = dose: 200.0 mg/kg/injection, schedule: Q04DX002 (ip), vehicle: saline with Tween-80
[20] = dose: 400.0 mg/kg/injection, schedule: Q04DX002 (ip), vehicle: saline with Tween-80
[21] = dose: 400.0 mg/kg/injection, schedule: Q01DX001 (ip), vehicle: carboxymethylcellulose (CMC)

Measured: T/C

COC1C(OC(C)=O)CC(=O)OC(C)C/C=C/C=C\C(O)C(C)CC(CC=O)C1OC1OC(C)C(OC2CC(C)(O)C(OC(=O)CC(C)C)C(C)O2)C(N(C)C)C1O (stereo not given)
inactive: [1] 96 % of control | [2] 90 % of control

c1ccc([B-](c2ccccc2)(c2ccccc2)[C+]2CCCCC2)cc1 (tested in a mixture with another compound)
inactive: [1] 105 % of control | [3] 108 % of control | [2] 108 % of control

Clc1ccc(Cl)nn1
inactive: [4] 102 % of control | dose: 200.0 mg/kg/injection, schedule: Q04DX002 (ip), vehicle: saline 87 % of control | dose: 400.0 mg/kg/injection, schedule: Q04DX002 (ip), vehicle: saline 87 % of control

Nc1nc(=S)[nH]c(N)c1N
inactive: dose: 125.0 mg/kg/injection, schedule: Q01DX Z (ip), vehicle: methylcellulose (MC) 93 % of control

O=C1c2ccccc2C(=O)N1c1ccccc1
inactive: [5] 98 % of control | [6] 91 % of control | [7] 98 % of control | [8] 94 % of control | [9] 95 % of control | [10] 88 % of control

Br/C=C(\Br)CBr
inactive: dose: 75.0 mg/kg/injection, schedule: Q01DX001 (sc), vehicle: olive oil, sesame oil, peanut oil 105 % of control | dose: 150.0 mg/kg/injection, schedule: Q01DX001 (sc), vehicle: olive oil, sesame oil, peanut oil 108 % of control

COc1cc(CNCc2cc(OC)c(OC)c(OC)c2)cc(OC)c1OC
inactive: dose: 50.0 mg/kg/injection, schedule: Q01DX001 (ip), vehicle: saline 102 % of control | [1] 102 % of control

CCN(CC)CCOCCOC(=O)C(CC)(CC)c1cccc2ccccc12
inactive: dose: 25.0 mg/kg/injection, schedule: Q04DX002 (ip), vehicle: Klucel (hydroxypropylcellulose) (HPC) 93 % of control | dose: 50.0 mg/kg/injection, schedule: Q04DX002 (ip), vehicle: Klucel (hydroxypropylcellulose) (HPC) 97 % of control | [6] 93 % of control

COc1cc(C(=O)NCc2cccs2)cc(OC)c1OC
inactive: [6] 102 % of control | [8] 94 % of control | [10] 94 % of control

[N-]=[N+]=NCC1OCOC1C1OCOC1CN=[N+]=[N-] (stereo not given)
inactive: [11] 96 % of control | dose: 50.0 mg/kg/injection, schedule: Q01DX009 (ip), vehicle: saline 98 % of control | dose: 100.0 mg/kg/injection, schedule: Q01DX009 (ip), vehicle: saline 102 % of control

CCc1ccccc1NC(=O)Nc1ccc(OC)cc1
inactive: dose: 25.0 mg/kg/injection, schedule: Q01DX009 (ip), vehicle: Klucel (hydroxypropylcellulose) (HPC) 90 % of control | dose: 50.0 mg/kg/injection, schedule: Q01DX009 (ip), vehicle: Klucel (hydroxypropylcellulose) (HPC) 95 % of control | [5] 93 % of control | dose: 100.0 mg/kg/injection, schedule: Q04DX003 (ip), vehicle: Klucel (hydroxypropylcellulose) (HPC) 94 % of control | [7] 86 % of control | dose: 200.0 mg/kg/injection, schedule: Q04DX003 (ip), vehicle: Klucel (hydroxypropylcellulose) (HPC) 91 % of control | dose: 400.0 mg/kg/injection, schedule: Q04DX003 (ip), vehicle: Klucel (hydroxypropylcellulose) (HPC) 96 % of control

Nc1nc(N)c(-c2ccc(Cl)c(Cl)c2)c(C[P+](c2ccccc2)(c2ccccc2)c2ccccc2)n1
inactive: dose: 75.0 mg/kg/injection, schedule: Q01DX001 (ip), vehicle: saline 97 % of control

Nc1nc(=O)n(C2OC(CO)C(O)C2O)c2scnc12 (stereo not given)
inactive: dose: 50.0 mg/kg/injection, schedule: Q01DX005 (ip), vehicle: saline 107 % of control | dose: 100.0 mg/kg/injection, schedule: Q01DX005 (ip), vehicle: saline 107 % of control

O=C1c2ccccc2C(=O)N1CNc1ccc2c(c1)OCO2
inactive: dose: 50.0 mg/kg/injection, schedule: Q01DX009 (ip), vehicle: saline with Tween-80 108 % of control | [12] 97 % of control | [13] 90 % of control

CNC(=O)Oc1cc2c(cc1C)C(C)(C)CCC2(C)C
inactive: [5] 96 % of control | [7] 96 % of control | [9] 91 % of control

Cc1cccc(NC(=O)N(O)C2(C#N)CCCCC2)c1
inactive: [1] 93 % of control | [3] 96 % of control | [2] 98 % of control

Cc1cc(Cl)c(Cl)cc1NC(=O)Nc1cccc(C(F)(F)F)c1
inactive: [14] 93 % of control | [15] 91 % of control | [16] 102 % of control

Cn1cc(C2Cc3ccccc3NC3=C2C(=O)CC(C)(C)C3)c2ccccc21 (stereo not given)
inactive: dose: 100.0 mg/kg/injection, schedule: Q01DX001 (ip), vehicle: other 103 % of control | dose: 200.0 mg/kg/injection, schedule: Q01DX001 (ip), vehicle: other 92 % of control | dose: 400.0 mg/kg/injection, schedule: Q01DX001 (ip), vehicle: other 86 % of control

O=C(Nc1ccc(Cl)c(Cl)c1)Nc1c(Oc2ccc(Cl)c(Cl)c2)ccc(Cl)c1S(=O)(=O)O
inactive: dose: 6.25 mg/kg/injection, schedule: Q01DX009 (ip), vehicle: saline 94 % of control | [17] 93 % of control | [11] 96 % of control

CCC(Cl)COP(=O)(OCC(Cl)CC)O/C(C)=C(/C)P(=O)(OCC(Cl)CC)OCC(Cl)CC (stereo not given)
inactive: [18] 104 % of control | [19] 96 % of control | [20] 100 % of control

O=C(Oc1ccc([N+](=O)[O-])cc1)c1cccc(S(=O)(=O)F)c1
inactive: dose: 100.0 mg/kg/injection, schedule: Q01DX001 (ip), vehicle: carboxymethylcellulose (CMC) 93 % of control and 102 % of control | [14] 103 % of control and 110 % of control | dose: 100.0 mg/kg/injection, schedule: Q04DX003 (ip), vehicle: carboxymethylcellulose (CMC) 104 % of control | dose: 200.0 mg/kg/injection, schedule: Q01DX001 (ip), vehicle: carboxymethylcellulose (CMC) 98 % of control and 101 % of control | [15] 92 % of control and 94 % of control | dose: 200.0 mg/kg/injection, schedule: Q04DX003 (ip), vehicle: carboxymethylcellulose (CMC) 102 % of control and 90 % of control | [21] 98 % of control and 101 % of control | [16] 92 % of control | dose: 400.0 mg/kg/injection, schedule: Q04DX003 (ip), vehicle: carboxymethylcellulose (CMC) 96 % of control and 90 % of control

CC(N)C(=O)NC(C(=O)O)C(C)O (stereo not given)
inactive: dose: 25.0 mg/kg/injection, schedule: Q04DX002 (ip), vehicle: saline 98 % of control | dose: 50.0 mg/kg/injection, schedule: Q04DX002 (ip), vehicle: saline 121 % of control | [4] 113 % of control

O=C(Nc1ccc(Nc2ccccc2)cc1)c1ccc(F)cc1
inactive: dose: 100.0 mg/kg/injection, schedule: Q01DX009 (ip), vehicle: gum acacia 91 % of control | dose: 200.0 mg/kg/injection, schedule: Q01DX009 (ip), vehicle: gum acacia 96 % of control | dose: 400.0 mg/kg/injection, schedule: Q01DX009 (ip), vehicle: gum acacia 94 % of control

CCCCCCCCCCCCCC[S+](C)C
inactive: [17] 108 % of control | dose: 12.5 mg/kg/injection, schedule: Q04DX003 (ip), vehicle: saline 101 % of control | [11] 123 % of control | dose: 25.0 mg/kg/injection, schedule: Q04DX003 (ip), vehicle: saline 90 % of control | dose: 50.0 mg/kg/injection, schedule: Q04DX003 (ip), vehicle: saline 96 % of control

c1ccc(P2CCc3[nH]c4ccccc4c3C2)cc1 (stereo not given)
inactive: [12] 97 % of control | dose: 100.0 mg/kg/injection, schedule: Q04DX003 (ip), vehicle: saline 100 % of control | [13] 110 % of control | dose: 200.0 mg/kg/injection, schedule: Q04DX003 (ip), vehicle: saline 96 % of control | dose: 400.0 mg/kg/injection, schedule: Q01DX009 (ip), vehicle: saline with Tween-80 100 % of control | dose: 400.0 mg/kg/injection, schedule: Q04DX003 (ip), vehicle: saline 113 % of control

IC1CCC2OC1CCC2I (stereo not given)
inactive: [18] 94 % of control | [19] 94 % of control | [20] 109 % of control

CCOc1ccc(NC2=C(OC)C(=O)C(Nc3ccc(OCC)cc3)=C(OC)C2=O)cc1
inactive: dose: 50.0 mg/kg/injection, schedule: Q01DX001 (ip), vehicle: carboxymethylcellulose (CMC) 99 % of control | [21] 93 % of control
